Measured values reported in BigSolDB 2.1.

COC1CCC2(CC1)NC(=O)C(c1cc(C)ccc1C)=C2O (stereo not given)
solubility (mole fraction)
Conditions | 288.15 K | 293.15 K | 298.15 K | 303.15 K | 308.15 K | 313.15 K | 318.15 K | 323.15 K | 328.15 K
in acetonitrile | 0.000317 | 0.000345 | 0.000375 | 0.000463 | 0.00057 | 0.000681 | 0.000791 | 0.000923 | 0.0011
in ethanol | 0.00255 | 0.00276 | 0.00302 | 0.00341 | 0.00392 | 0.00447 | 0.00513 | 0.00596 | 0.00681
in methanol | 0.00339 | 0.00379 | 0.00431 | 0.00473 | 0.00528 | 0.00589 | 0.00656 | 0.00735 | 0.00832
in n-propanol | 0.00252 | 0.00303 | 0.00348 | 0.00402 | 0.00453 | 0.00518 | 0.00603 | 0.00697 | 0.00799
in water | 1.96e-06 | 3.14e-06 | 4.08e-06 | 5.12e-06 | 6.15e-06 | 7.28e-06 | 8.43e-06 | 9.14e-06 | 1.05e-05
